Structures are written as SMILES. Some results are limits rather than exact numbers.

The IC50 is the concentration that gives 50% inhibition. The low end stands for greater potency, the high end for weaker potency. As usually defined, the Dmax is the greatest extent of degradation seen. High values mean a fuller loss of target, low ones a partial loss of target.

For one test, the target named is BCL6 (Homo sapiens (Human), UniProt P41182). The experiment in a line: Immunofluorescence high content imaging of BCL6 degradation in T47D cells. The class given is cell-based.
Details: not given
The method in brief:
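Seed T47D in RPMI1640-10% FBS to reach ~70-90% confluence at endpoint; add degrader next day (11-point 3-fold series, top 0.1 or 1 μM final) for 3 days. Then fix, permeabilize, stain BCL6 with nuclear Hoechst, and image.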
As for `CNC(=O)COc1cc2cc(Nc3nc(N4CCCC(OC5CCN(c6ccc7c(c6)C(=O)N(C6CCC(=O)NC6=O)C7=O)CC5)CC4)ncc3Cl)ccc2n(C)c1=O` (centres unmarked) [compound 241, 2-((6-((5-chloro-2-(4-((1-(2-(2,6-dioxopiperidin-3-yl)-1,3-dioxoisoindolin-5-yl)piperidin-4-yl)oxy)azepan-1-yl)pyrimidin-4-yl)amino)-1-methyl-2-oxo-1,2-dihydroquinolin-3-yl)oxy)-N-methylacetamide], the IC50 lay in the range of 10 to 50 nM.

`CNC(=O)COc1cc2cc(Nc3nc(N4CCC(OC5CN(c6cccc7c6C(=O)N(C6CCC(=O)NC6=O)C7=O)C5)CC4)ncc3Cl)ccc2n(C)c1=O` (centres unmarked) [compound 255, 2-((6-((5-chloro-2-(4-((1-(2-(2,6-dioxopiperidin-3-yl)-1,3-dioxoisoindolin-4-yl)azetidin-3-yl)oxy)piperidin-1-yl)pyrimidin-4-yl)amino)-1-methyl-2-oxo-1,2-dihydroquinolin-3-yl)oxy)-N-methylacetamide]: the 50% inhibitory concentration (IC50) was < 10 nM.

Staying with this test, now noted: T47D.
For `CNC(=O)COc1cc2cc(Nc3nc(N4CCCC(OC5CCN(c6ccc7c(c6)C(=O)N(C6CCC(=O)NC6=O)C7=O)CC5)CC4)ncc3Cl)ccc2n(C)c1=O` (centres unmarked) [compound 241, 2-((6-((5-chloro-2-(4-((1-(2-(2,6-dioxopiperidin-3-yl)-1,3-dioxoisoindolin-5-yl)piperidin-4-yl)oxy)azepan-1-yl)pyrimidin-4-yl)amino)-1-methyl-2-oxo-1,2-dihydroquinolin-3-yl)oxy)-N-methylacetamide], the Dmax is < 50%.

Take `CNC(=O)COc1cc2cc(Nc3nc(N4CCC(OC5CN(c6cccc7c6C(=O)N(C6CCC(=O)NC6=O)C7=O)C5)CC4)ncc3Cl)ccc2n(C)c1=O` (centres unmarked) [compound 255, 2-((6-((5-chloro-2-(4-((1-(2-(2,6-dioxopiperidin-3-yl)-1,3-dioxoisoindolin-4-yl)azetidin-3-yl)oxy)piperidin-1-yl)pyrimidin-4-yl)amino)-1-methyl-2-oxo-1,2-dihydroquinolin-3-yl)oxy)-N-methylacetamide]: the Dmax is < 50%.

Still in this test, the particulars now being: T47D cells.
`CNC(=O)COc1cc2cc(Nc3nc(N4CCN(CC5CCN(c6cccc(C(=O)NC7CCC(=O)NC7=O)n6)CC5)CC4)ncc3Cl)ccc2n(C)c1=O` (centres unmarked) [compound 320, 6-[4-({4-[5-chloro-4-({1-methyl-3-[(methylcarbamoyl)methoxy]-2-oxo-1,2-dihydroquinolin-6-yl}amino)pyrimidin-2-yl]piperazin-1-yl}methyl)piperidin-1-yl]-N-(2,6-dioxopiperidin-3-yl)pyridine-2-carboxamide]: the Dmax is < 50% and the IC50 was < 10 nM.

Take `CNC(=O)COc1cc2cc(Nc3nc(N4CCO[C@H](COc5ccc(C(=O)NC6CCC(=O)NC6=O)cc5)C4)ncc3Cl)ccc2n(C(C)C)c1=O` (stereo partly drawn) [compound 348, 4-{[(2S)-4-[5-chloro-4-({3-[(methylcarbamoyl)methoxy]-2-oxo-1-(propan-2-yl)-1,2-dihydroquinolin-6-yl}amino)pyrimidin-2-yl]morpholin-2-yl]methoxy}-N-(2,6-dioxopiperidin-3-yl)benzamide]: the Dmax was < 50% and the IC50 lay within 10 to 50 nM.

For `CNC(=O)COc1cc2cc(Nc3nc(N4CCC(CN5CC6(CCN(c7ccc(C(=O)NC8CCC(=O)NC8=O)c(OC)c7)CC6)C5)CC4)ncc3Cl)ccc2n(C(C)C)c1=O` (centres unmarked) [compound 438, 4-[2-({1-[5-chloro-4-({3-[(methylcarbamoyl)methoxy]-2-oxo-1-(propan-2-yl)-1,2-dihydroquinolin-6-yl}amino)pyrimidin-2-yl]piperidin-4-yl}methyl)-2,7-diazaspiro[3.5]nonan-7-yl]-N-(2,6-dioxopiperidin-3-yl)-2-methoxybenzamide], the greatest degradation seen (Dmax) was ≥ 70% and the IC50 lay within 10 to 50 nM.

As for `CNC(=O)COc1cc2cc(Nc3nc(N4CCC(CN5CC6(CCN(c7cccc(C(=O)NC8CCC(=O)NC8=O)c7F)CC6)C5)CC4)ncc3Cl)ccc2n(C(C)C)c1=O` (centres unmarked) [compound 440, 3-[2-({1-[5-chloro-4-({3-[(methylcarbamoyl)methoxy]-2-oxo-1-(propan-2-yl)-1,2-dihydroquinolin-6-yl}amino)pyrimidin-2-yl]piperidin-4-yl}methyl)-2,7-diazaspiro[3.5]nonan-7-yl]-N-(2,6-dioxopiperidin-3-yl)-2-fluorobenzamide], the greatest degradation seen (Dmax) is ≥ 70% and the half-maximal inhibitory concentration (IC50) was < 10 nM.

On to `CNC(=O)COc1cc2cc(Nc3nc(N4CCC(OC5CC6(CCN(c7cccc8c7C(=O)N(C7CCC(=O)NC7=O)C8=O)CC6)C5)CC4)ncc3Cl)ccc2n(C(C)C)c1=O` (centres unmarked) [compound 391, 2-{[6-({5-chloro-2-[4-({7-[2-(2,6-dioxopiperidin-3-yl)-1,3-dioxo-2,3-dihydro-1H-isoindol-4-yl]-7-azaspiro[3.5]nonan-2-yl}oxy)piperidin-1-yl]pyrimidin-4-yl}amino)-2-oxo-1-(propan-2-yl)-1,2-dihydroquinolin-3-yl]oxy}-N-methylacetamide], for which the maximal degradation (Dmax) was ≥ 70% and the IC50 was < 10 nM.

On to `CNC(=O)COc1cc2cc(Nc3nc(N4CCN(CC5CCCN5c5cccc6c5C(=O)N(C5CCC(=O)NC5=O)C6=O)CC4)ncc3Cl)ccc2n(C(C)C)c1=O` (centres unmarked) [compound 398, 2-{[6-({5-chloro-2-[4-({1-[2-(2,6-dioxopiperidin-3-yl)-1,3-dioxo-2,3-dihydro-1H-isoindol-4-yl]pyrrolidin-2-yl}methyl)piperazin-1-yl]pyrimidin-4-yl}amino)-2-oxo-1-(propan-2-yl)-1,2-dihydroquinolin-3-yl]oxy}-N-methylacetamide], for which the greatest degradation seen (Dmax) is < 50% and the IC50 is < 10 nM.

Turning to `CNC(=O)COc1cc2cc(Nc3nc(N4CCC(OC5CC6(CCN(c7ccc8c(c7)C(=O)N(C7CCC(=O)NC7=O)C8=O)CC6)C5)CC4)ncc3Cl)ccc2n(C(C)C)c1=O` (centres unmarked) [compound 390, 2-{[6-({5-chloro-2-[4-({7-[2-(2,6-dioxopiperidin-3-yl)-1,3-dioxo-2,3-dihydro-1H-isoindol-5-yl]-7-azaspiro[3.5]nonan-2-yl}oxy)piperidin-1-yl]pyrimidin-4-yl}amino)-2-oxo-1-(propan-2-yl)-1,2-dihydroquinolin-3-yl]oxy}-N-methylacetamide], the Dmax lay in the range of 50 to 70% and the IC50 was < 10 nM.

On to `CNC(=O)COc1cc2cc(Nc3nc(N4CCC(CN5CCC6(CC5)CN(c5cccc7c5CN(C5CCC(=O)NC5=O)C7=O)C6)CC4)ncc3Cl)ccc2n(C(C)C)c1=O` (centres unmarked) [compound 442, 2-{[6-({5-chloro-2-[4-({2-[2-(2,6-dioxopiperidin-3-yl)-1-oxo-2,3-dihydro-1H-isoindol-4-yl]-2,7-diazaspiro[3.5]nonan-7-yl}methyl)piperidin-1-yl]pyrimidin-4-yl}amino)-2-oxo-1-(propan-2-yl)-1,2-dihydroquinolin-3-yl]oxy}-N-methylacetamide], for which the greatest degradation seen (Dmax) is ≥ 70% and the half-inhibitory concentration (IC50) is < 10 nM.

As for `CNC(=O)COc1cc2cc(Nc3nc(N4CCN(CC5CCN(C(=O)c6cccc(N7CCC(=O)NC7=O)c6)CC5)CC4)ncc3Cl)ccc2n(C(C)C)c1=O` [compound 407, 2-{[6-({5-chloro-2-[4-({1-[3-(2,4-dioxo-1,3-diazinan-1-yl)benzoyl]piperidin-4-yl}methyl)piperazin-1-yl]pyrimidin-4-yl}amino)-2-oxo-1-(propan-2-yl)-1,2-dihydroquinolin-3-yl]oxy}-N-methylacetamide], the IC50 was ≥ 100 nM.

With `CCn1c(=O)c(OCC(=O)NC)cc2cc(Nc3nc(N4CCN(CC5CCN(c6ccc(C(=O)NC7CCC(=O)NC7=O)c(OC)c6)CC5)CC4)ncc3Cl)ccc21` (centres unmarked) [compound 375, 4-[4-({4-[5-chloro-4-({1-ethyl-3-[(methylcarbamoyl)methoxy]-2-oxo-1,2-dihydroquinolin-6-yl}amino)pyrimidin-2-yl]piperazin-1-yl}methyl)piperidin-1-yl]-N-(2,6-dioxopiperidin-3-yl)-2-methoxybenzamide], the greatest degradation seen (Dmax) was 50 to 70% and the 50% inhibitory concentration (IC50) is < 10 nM.

`CNC(=O)COc1cc2cc(Nc3nc(N4CCC(CN5CCC6(CC5)CN(c5cccc7c5C(=O)N(C5CCC(=O)NC5=O)C7=O)C6)CC4)ncc3Cl)ccc2n(C(C)C)c1=O` (centres unmarked) [compound 418, 2-{[6-({5-chloro-2-[4-({2-[2-(2,6-dioxopiperidin-3-yl)-1,3-dioxo-2,3-dihydro-1H-isoindol-4-yl]-2,7-diazaspiro[3.5]nonan-7-yl}methyl)piperidin-1-yl]pyrimidin-4-yl}amino)-2-oxo-1-(propan-2-yl)-1,2-dihydroquinolin-3-yl]oxy}-N-methylacetamide]: the greatest degradation seen (Dmax) is ≥ 70% and the IC50 is < 10 nM.

The test is the same for the next values; noted with them: class symbols A-D, read-out: EC50 (nM)*.
On to `CNC(=O)COc1cc2cc(Nc3nc(N4CCC(Cc5cn(CCOCCOCCOCC(=O)N[C@H](C(=O)N6C[C@H](O)C[C@H]6C(=O)N[C@@H](C)c6ccc(-c7scnc7C)cc6)C(C)(C)C)nn5)CC4)ncc3Cl)ccc2n(C)c1=O` [compound 123, (2S,4R)-1-((S)-2-(tert-butyl)-14-(4-((1-(5-chloro-4-((1-methyl-3-(2-(methylamino)-2-oxoethoxy)-2-oxo-1,2-dihydroquinolin-6-yl)amino)pyrimidin-2-yl)piperidin-4-yl)methyl)-1H-1,2,3-triazol-1-yl)-4-oxo-6,9,12-trioxa-3-azatetradecanoyl)-4-hydroxy-N-((S)-1-(4-(4-methylthiazol-5-yl)phenyl)ethyl)pyrrolidine-2-carboxamide], for which the DC50 was in the range of 50 to 100 nM.

Turning to `CNC(=O)COc1cc2cc(Nc3nc(N4CCC(OCCOCC(=O)N[C@H](C(=O)N5C[C@H](O)C[C@H]5C(=O)NCc5ccc(-c6scnc6C)cc5)C(C)(C)C)CC4)ncc3Cl)ccc2n(C)c1=O` [compound 86, (2S,4R)-1-((S)-2-(2-(2-((1-(5-chloro-4-((1-methyl-3-(2-(methylamino)-2-oxoethoxy)-2-oxo-1,2-dihydroquinolin-6-yl)amino)pyrimidin-2-yl)piperidin-4-yl)oxy)ethoxy)acetamido)-3,3-dimethylbutanoyl)-4-hydroxy-N-(4-(4-methylthiazol-5-yl)benzyl)pyrrolidine-2-carboxamide], the DC50 was 50 to 100 nM.

In the case of `CNC(=O)COc1cc2cc(Nc3nc(N4CCC(OCCOc5ccc6c(c5)C(=O)N(C5CCC(=O)NC5=O)C6=O)CC4)ncc3Cl)ccc2n(C)c1=O` (centres unmarked) [compound 72, 2-((6-((5-chloro-2-(4-(2-((2-(2,6-dioxopiperidin-3-yl)-1,3-dioxoisoindolin-5-yl)oxy)ethoxy)piperidin-1-yl)pyrimidin-4-yl)amino)-1-methyl-2-oxo-1,2-dihydroquinolin-3-yl)oxy)-N-methylacetamide], the DC50 lay in the range of 50 to 100 nM.

On to `CNC(=O)COc1cc2cc(Nc3nc(N4CCC(OCCOCCOCCOCCOc5cc(-c6scnc6C)ccc5CNC(=O)[C@@H]5C[C@@H](O)CN5C(=O)C(c5cc(C)no5)C(C)C)CC4)ncc3Cl)ccc2n(C)c1=O` (stereo partly drawn) [compound 54, (2S,4R)-N-(2-(2-(2-(2-(2-((1-(5-chloro-4-((1-methyl-3-(2-(methylamino)-2-oxoethoxy)-2-oxo-1,2-dihydroquinolin-6-yl)amino)pyrimidin-2-yl)piperidin-4-yl)oxy)ethoxy)ethoxy)ethoxy)ethoxy)-4-(4-methylthiazol-5-yl)benzyl)-4-hydroxy-1-(3-methyl-2-(3-methylisoxazol-5-yl)butanoyl)pyrrolidine-2-carboxamide], for which the DC50 is > 100 nM.

Source of the values: patent publication US12310975B2, “Modulators of BCL6 proteolysis and associated methods of use” (Arvinas Operations, Inc., priority 2019, dated 2025).
